Patent publication US12466849B2, “Anti-viral and anti-tumoral compounds” (YEDA RESEARCH AND DEVELOPMENT CO. LTD, priority 2020, dated 2025)
Where two headings read alike, the source gives them in different places.

Experiments:
in vitro [1] = conditions: male, SD, rat, plasma
in vitro [2] = conditions: both, human, plasma
in vitro [3] = conditions: rat
in vitro [4] = conditions: African green monkey
JC virus (JCV) [5] = assay: Secondary JCV assay (qPCR), COS7 cells
[6] = Secondary JCV assay (qPCR), COS7 cells; conditions: African green monkey
[7] = Rat plasma pharmacokinetics after IV infusion and PO dose; conditions: rats; 10 mg/kg IV 2-h infusion and PO
in vitro [8] = conditions: human
[9] = system: BK virus (BKV), Gardner strain
HFF cells = assay: Cell proliferation assay, human foreskin fibroblast (HFF) cells; assay type: cell-based; conditions: Homo sapiens, 72 h, cell number
[10] = rat; for CLhep / Eh: 1 μM; for Peak area ratio, parent: 1 µM
in vivo = conditions: male, Sprague-Dawley, rat; for AUC(0-inf): AUCInf; for AUC(0-t): AUClast; for clearance: CL; for MRT inf: MRTInf
in vitro [11] = conditions: human; remark: listed apart in the source
[12] = MRC-5 cytotoxicity assay (MTS) and visual cytotoxicity; conditions: human
JC virus (JCV) [13] = system: JC virus (JCV)
[14] = system: BK virus (BKV), Gardner strain; assay: microbe, parasite or virus in culture; conditions: Betapolyomavirus hominis, HFF
in vitro [15] = conditions: human; remark: listed apart in the source
HCMV AD169 = assay: HCMV plaque reduction assay, MRC-5 cells, strain AD169; assay type: cell-based, Human cytomegalovirus
JC virus (JCV) [16] = assay: microbe, parasite or virus in culture; conditions: JC polyomavirus, COS-7
[17] = human; for CLhep / Eh / Peak area ratio, parent: 1 μM

## CCCCCCCCCCCCCCCCOCCCOP(=O)(O)OCC1=C[C@H](O)[C@H](n2cnc3c(=O)[nH]c(N)nc32)O1 [AB23040]
In vitro [1]
  half-life at 0.75 µM: > 9.32 h
  half-life at 0.75 μM: > 9.3 h
In vitro [2]
  half-life at 0.75 µM: > 9.32 h
  half-life at 0.75 μM: > 9.3 h
In vitro [3]; s9
  microsomal CLint at 1 μM: 5.8 µL/min/mg
In vitro [3]; s9, T1/2
  half-life at 1 µM: 5.72 h
  half-life at 1 μM: 3.95 h
In vitro [4]
  CC50: 80.7 µM
JC virus (JCV) [5]; JC polyomavirus, COS-7, 168 h
  EC50: 0.37 µM
  EC90: 18.6 µM
JC virus (JCV) [5]; secondary JCV assay, COS7 cells, class by SI50
  Activity: HI (HI (Highly Active) SI50 = ≥20)
JC virus (JCV) [5]; secondary testing, COS7 cells
  antiviral activity against JCV (in words): high
[6]
  CC50 at 7 days: 31.3 µM
[7]
  tolerability / adverse events (AE): well-tolerated
In vitro [8]; s9
  microsomal CLint at 1 μM: 7 µL/min/mg
In vitro [8]; s9, T1/2
  half-life at 1 µM: 4.69 h
  half-life at 1 μM: 3.31 h
[9]
  Activity: LO (key: NA (Not Active) SI50 = 0-3.9; LO (Slightly Active) SI50 = 4-9.9; MOD (Moderately Active) SI50 = 10-19.9; HI (Highly Active) SI50 = ≥20)
  activity against BK virus (in words): Low activity
HFF cells
  IC50: 65.9 µM
[10]
  CLhep: 18.7 mL/min/kg
  Eh: 21%
[10]; 15 min
  Peak area ratio, parent: 1.16E−01
[10]; 60 min
  Peak area ratio, parent: 1.11E−01
[10]; s9
  hydrolytic stability in hepatic S9 (in words): least stable
[10]; s9, 1 μM
  T1/2: 3.95 h
In vivo; iv, 10 mg/kg
  concentration at 0.5 h: 2670 nM
  concentration at 1 h: 3260 nM
  concentration at 2 h: 4070 nM
  concentration at 4 h: 133 nM
  concentration at 8 h: 13 nM
  concentration at 24 h: 5 nM
  concentration at 72 h: 4 nM
  AUC(0-inf): 9.13 µM·h
  AUC(0-t): 9.12 µM·h
  clearance: 28.3 mL/min/kg
  Cmax: 3650 nM
  Tmax: 2 h
In vivo; iv, 10 mg/kg, Terminal t1/2
  half-life: 37 h
In vivo; iv, 10 mg/kg, t1/2
  half-life: 0.8 h
In vivo; iv, t1/2 in plasma
  half-life: < 1 h
In vivo; po, 10 mg/kg
  bioavailability: 4%
  concentration at 0.5 h: 38 nM
  concentration at 1 h: 58 nM
  concentration at 2 h: 77 nM
  concentration at 4 h: 30.4 nM
  concentration at 8 h: 24 nM
  AUC(0-inf): 0.503 µM·h
  AUC(0-t): 0.387 µM·h
  MRT inf: 5.2 h
  Tmax: 2 h
In vitro [11]
  CC50: 25.1 µM
[12]
  CC50 at 6 days: > 100 µM
JC virus (JCV) [13]
  Activity: LO (key: NA (Not Active) SI50 = 0-3.9; LO (Slightly Active) SI50 = 4-9.9; MOD (Moderately Active) SI50 = 10-19.9; HI (Highly Active) SI50 = ≥20)
  activity against JC virus (in words): Low activity
[14]
  EC50: 4.97 µM
  EC90: > 6 µM
In vitro [15]
  CC50 at 7 d: 112 µM
HCMV AD169; Human betaherpesvirus 5, 144 h, hCMV AD169, MRC5 cells, plaque assay, 6-days duration
  EC50: 22.1 µM
HCMV AD169; MRC5 cells, AD169 strain
  antiviral activity against hCMV (in words): impressive antiviral activity
HCMV AD169; hCMV AD169, MRC5 cells
  Selectivity Index (CC50/EC50): >4.52
JC virus (JCV) [16]
  EC50: 8.85 µM
  EC90: 28 µM
[17]
  CLhep: 10.6 mL/min/kg
  Eh: 24%
[17]; 15 min
  Peak area ratio, parent: 1.33E−01
[17]; 60 min
  Peak area ratio, parent: 1.05E−01
[17]; s9
  hydrolytic stability in hepatic S9 (in words): least stable
[17]; s9, 1 μM
  T1/2: 3.32 h

## CCCCCCCCCCCCCCCCOCCCOP(=O)(O)CO[C@H](CO)Cn1ccc(N)nc1=O [BCV, Brincidofovir]
In vitro [1]
  half-life at 0.75 μM: > 9.3 h
In vitro [2]
  half-life at 0.75 μM: > 9.3 h
In vitro [3]; s9, T1/2
  half-life at 1 μM: 7.68 h
In vitro [4]
  CC50: 9.25 µM
[7]
  tolerability / adverse events (AE): well-tolerated
In vitro [8]; s9, T1/2
  half-life at 1 μM: 4.1 h
[9]
  activity against BK virus (in words): high or moderate activity
[10]
  CLhep: 11.5 mL/min/kg
  Eh: 16%
In vivo; iv, 10 mg/kg
  concentration at 0.5 h: 3400 nM
  concentration at 1 h: 3200 nM
  concentration at 2 h: 3660 nM
  concentration at 4 h: 45 nM
  concentration at 8 h: 9 nM
  concentration at 24 h: 6 nM
  AUC(0-inf): 9.01 µM·h
  AUC(0-t): 8.98 µM·h
  clearance: 33.3 mL/min/kg
  Cmax: 3760 nM
  MRT inf: 1.9 h
In vivo; iv, 10 mg/kg, Vss
  Vd: 3.7 L/kg
In vivo; iv, 10 mg/kg, t1/2
  half-life: 0.8 h
In vivo; iv, t1/2 in plasma
  half-life: < 1 h
In vivo; po, 10 mg/kg
  bioavailability: 11%
  concentration at 0.5 h: 21 nM
  concentration at 1 h: 25 nM
  concentration at 2 h: 42 nM
  concentration at 4 h: 39 nM
  concentration at 8 h: 11 nM
  AUC(0-inf): 1.2 µM·h
  AUC(0-t): 1.17 µM·h
  Cmax: 141 nM
  MRT inf: 6.9 h
  Tmax: 4 h
In vivo; po, 10 mg/kg, t1/2
  half-life: 4.2 h
In vitro [11]
  CC50: > 10 µM
JC virus (JCV) [13]
  activity against JC virus (in words): high or moderate activity
[14]
  EC50: 0.06 µM
  EC90: 0.39 µM
JC virus (JCV) [16]
  EC50: 0.74 µM
  EC90: 1.85 µM
[17]
  CLhep: 9.5 mL/min/kg
  Eh: 31%
